Experimental data from BindingDB's records for doi:10.1021/jm800930w (Kyoto University, 2008).

Molecular target: KiSS-1 receptor (Homo sapiens, UniProt Q969F8)
Assay: Receptor Binding Assay
Conditions: pH 7.3; 25 °C

Sequence of KiSS-1 receptor (Q969F8 whole entry): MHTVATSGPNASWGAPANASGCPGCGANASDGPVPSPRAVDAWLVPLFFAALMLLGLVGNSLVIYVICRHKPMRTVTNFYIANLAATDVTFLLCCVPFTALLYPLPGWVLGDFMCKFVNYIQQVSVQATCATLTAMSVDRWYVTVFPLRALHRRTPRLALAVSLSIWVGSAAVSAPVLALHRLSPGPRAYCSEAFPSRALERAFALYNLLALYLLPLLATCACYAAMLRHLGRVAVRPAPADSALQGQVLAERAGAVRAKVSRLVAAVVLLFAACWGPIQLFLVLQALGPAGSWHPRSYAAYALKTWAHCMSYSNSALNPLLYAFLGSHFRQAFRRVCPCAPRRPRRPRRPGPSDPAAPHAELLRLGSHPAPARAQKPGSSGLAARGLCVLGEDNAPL

Question: With `CC(C)C[C@H](NC(=O)CNC(=O)[C@H](Cc1ccccc1)NC(=O)[C@H](CO)NC(=O)[C@H](CC(N)=O)NC(=O)[C@H](Cc1c[nH]c2ccccc12)NC(=O)[C@H](CC(N)=O)NC(=O)[C@@H](N)Cc1ccc(O)cc1)C(=O)N[C@@H](CCCNC(=N)N)C(=O)N[C@@H](Cc1ccccc1)C(N)=O` [(2S)-2-[(2S)-2-[(2S)-2-[(2S)-2-amino-3-(4-hydroxyphenyl)propanamido]butanediamido]-3-(1H-indol-3-yl)propanamido]-N-[(1S)-1-{[(1S)-1-[({[(1S)-1-{[(1S)-4-carbamimidamido-1-{[(1S)-1-carbamoyl-2-phenylethyl]carbamoyl}butyl]carbamoyl}-3-methylbutyl]carbamoyl}methyl)carbamoyl]-2-phenylethyl]carbamoyl}-2-hydroxyethyl]butanediamide] as the compound, how does the IC50 read?
Answer: 0.12 nM
